From patent publication US20250250245A1, “TRIMETAZIDINE SALTS” (LES LABORATOIRES SERVIER, priority 2021, published 2025) come the findings set out here.

Data set [1] can be described thus: Trimetazidine nitrosamine formation in aqueous sodium nitrite solution (LC/MS dosage). The data set is classed as physicochemical. As to the method: In order to model the formation of trimetazidine nitrosamine during the formulation process, an aqueous solution of sodium nitrite was added to the trimetazidine salt. The sodium nitrite mimics the presence of nitrites in water and/or excipients during a drug product manufacturing process.
The trimetazidine salt, in an amount corresponding to 600 mg trimetazidine, was placed in 2 mL volumetric flask. […]
The solution was stirred at 40° C. for 22 hours. The trimetazidine nitrosamine dosage was performed by LC/MS.

Data set [2] can be described thus: Solubility of the trimetazidine salts in the aqueous test solution. The class given is physicochemical. Particulars: 300 mg/mL in trimetazidine equivalent not used.
Where [3] appears, read: 300 mg/mL in trimetazidine equivalent, stirred at 40° C. for 22 hours.

Counter-ions that a name gives are not always drawn.

On to `COc1ccc(CN2CCNCC2)c(OC)c1OC` [Comparative Example A, Trimetazidine dihydrochloride], for which, in data set [1] (setting [3]), the Trimetazidine nitrosamine content is given as 126.0 ppm. As to `COc1ccc(CN2CCNCC2)c(OC)c1OC.O=C(O)C(=O)O` [Comparative Example C], in data set [1] (30 mg/mL in trimetazidine equivalent (low solubility), 40° C. for 22 hours), the Trimetazidine nitrosamine content was determined as 104.0 ppm. For the same molecule, in data set [2], the Solubility result is “low solubilities”. For `COc1ccc(CN2CCNCC2)c(OC)c1OC.O=C(O)C(=O)O.O=C(O)C(=O)O` [Comparative Example D], in data set [1] (6 mg/mL in trimetazidine equivalent (low solubility), 40° C. for 22 hours), the Trimetazidine nitrosamine content came to 83.1 ppm. Besides, the Solubility entry in data set [2] is “low solubilities”. `COc1ccc(CN2CCNCC2)c(OC)c1OC.Cl.Cl` [Comparative Example E]: in data set [1] (setting [3]), the Trimetazidine nitrosamine content is given as 22.0 ppm.

Take `COc1ccc(CN2CCNCC2)c(OC)c1OC.O=C(O)C=CC(=O)O` [Comparative Example F]: in data set [1] (setting [3]), the Trimetazidine nitrosamine content amounted to 121.2 ppm.

As to `COc1ccc(CN2CCNCC2)c(OC)c1OC.O=C(O)C=CC(=O)O` [Comparative Example G], the Trimetazidine nitrosamine content in data set [1] (setting [3]) turned out to be 31.9 ppm. On the same count and under the same terms, in the case of `COc1ccc(CN2CCNCC2)c(OC)c1OC.COc1ccc(CN2CCNCC2)c(OC)c1OC.O=C(O)CCCCC(=O)O` [Example 1, Trimetazidine Hemiadipate] it was 0.7 ppm. Still for that read-out and setting: the value for Trimetazidine Hemifumarate [Example 5] was 0.1 ppm; that for Trimetazidine Hemimalate [Example 3] was 0.7 ppm. Same read-out and setting: in the case of Trimetazidine Hemiphosphate [Example 7] it was 0.6 ppm. Consider Trimetazidine Hemisuccinate [Example 2], for which, in data set [1] (setting [3]), the Trimetazidine nitrosamine content was 0.5 ppm. Still for that read-out and setting: the value for Trimetazidine Hemisulfate [Example 4] was 0.6 ppm; that for Trimetazidine Hemitartrate [Example 6] was 0.6 ppm; that for “trimetazidine hemioxalate [Comparative Example B]” was 1.1 ppm.
